Where “and” joins values, the source holds several entries; their conditions need not be identical. Equal entries are not always repeated. Toxic doses and inconclusive results are not listed.
Test system: BDF1 mice, P388 leukemia ip, median survival T/C
Assay: NCI In Vivo Anticancer Drug Screen. Data for tumor model P388 Leukemia (intraperitoneal) in B6D2F1 (BDF1) mice
Settings: endpoint: median survival time, higher = longer survival
How it was run: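 Reported as T/C, where T is the survival measurement in dosed animals and C the same measurement in vehicle controls.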

[1] = dose: 200.0 mg/kg/injection, schedule: Q01DX009 (ip), vehicle: saline with Tween-80
[2] = dose: 100.0 mg/kg/injection, schedule: Q01DX009 (ip), vehicle: saline with Tween-80
[3] = dose: 400.0 mg/kg/injection, schedule: Q01DX009 (ip), vehicle: saline with Tween-80
[4] = dose: 50.0 mg/kg/injection, schedule: Q01DX009 (ip), vehicle: saline with Tween-80

## O=[N+]([O-])c1ccc(Cl)nc1
[1]
  T/C: 95 % of control

## C[C@]12CC[C@@H]3c4ccc(OC5CCCCO5)cc4CC[C@H]3[C@@H]1CC[C@@H]2O (stereo not given in full)
dose: 100.0 mg/kg/injection, schedule: Q01DX009 (ip), vehicle: saline
  T/C: 105 % of control
dose: 100.0 mg/kg/injection, schedule: Q04DX003 (ip), vehicle: saline
  T/C: 100 % of control
dose: 200.0 mg/kg/injection, schedule: Q01DX009 (ip), vehicle: saline
  T/C: 95 % of control
dose: 200.0 mg/kg/injection, schedule: Q04DX003 (ip), vehicle: saline
  T/C: 100 % of control
dose: 400.0 mg/kg/injection, schedule: Q04DX003 (ip), vehicle: saline
  T/C: 100 % of control

## CCCCCn1cnc2c(=S)nc[nH]c21
[2]
  T/C: 90 % of control
[1]
  T/C: 104 % of control
[3]
  T/C: 90 % of control

## C/C=C/C1CC(OC)=CC(=O)O1 (stereo not given)
dose: 100.0 mg/kg/injection, schedule: Q04DX003 (ip), vehicle: saline with Tween-80
  T/C: 106 % of control
dose: 200.0 mg/kg/injection, schedule: Q04DX003 (ip), vehicle: saline with Tween-80
  T/C: 92 % of control
dose: 400.0 mg/kg/injection, schedule: Q04DX003 (ip), vehicle: saline with Tween-80
  T/C: 97 % of control

## COc1ccc(CCCC(=O)O)cc1OC
[4]
  T/C: 108 % of control
[2]
  T/C: 105 % of control
[1]
  T/C: 103 % of control

## c1ccc2cc3c(cc2c1)Cn1c-3nc2ccccc21
[2]
  T/C: 100 % of control
[1]
  T/C: 100 % of control
[3]
  T/C: 95 % of control

## OC(Cc1nc2ccccc2nc1CC(O)(c1ccccc1)c1ccccc1)(c1ccccc1)c1ccccc1
[4]
  T/C: 90 % of control
[2]
  T/C: 98 % of control
[1]
  T/C: 106 % of control

## COc1ccc(NC(=O)Nc2ccccc2C(F)(F)F)cc1
dose: 100.0 mg/kg/injection, schedule: Q01DX001 (ip), vehicle: saline with Tween-80
  T/C: 95 % of control
dose: 200.0 mg/kg/injection, schedule: Q01DX001 (ip), vehicle: saline with Tween-80
  T/C: 100 % of control
dose: 400.0 mg/kg/injection, schedule: Q01DX001 (ip), vehicle: saline with Tween-80
  T/C: 90 % of control

## COc1c(Cl)cc(Cl)cc1Cl
dose: 100.0 mg/kg/injection, schedule: Q01DX009 (ip), vehicle: other
  T/C: 90 % of control
dose: 100.0 mg/kg/injection, schedule: Q04DX003 (ip), vehicle: other
  T/C: 90 % of control
dose: 200.0 mg/kg/injection, schedule: Q01DX009 (ip), vehicle: other
  T/C: 100 % of control
dose: 200.0 mg/kg/injection, schedule: Q04DX003 (ip), vehicle: other
  T/C: 105 % of control
dose: 400.0 mg/kg/injection, schedule: Q01DX009 (ip), vehicle: other
  T/C: 114 % of control
dose: 400.0 mg/kg/injection, schedule: Q04DX003 (ip), vehicle: other
  T/C: 110 % of control

## O=C(Nc1ccc(CCNC2=NCCN2)cc1)c1ccc(C(=O)Nc2ccc(CCNC3=NCCN3)cc2)cc1
dose: 1.0 mg/kg/injection, schedule: Q01DX009 (ip), vehicle: saline
  T/C: 106 % of control
dose: 2.0 mg/kg/injection, schedule: Q01DX009 (ip), vehicle: saline
  T/C: 106 % of control
dose: 8.2 mg/kg/injection, schedule: Q01DX009 (ip), vehicle: saline
  T/C: 199 % of control
dose: 12.5 mg/kg/injection, schedule: Q01DX009 (ip), vehicle: saline
  T/C: 226 % of control and 254 % of control
dose: 18.0 mg/kg/injection, schedule: Q01DX009 (ip), vehicle: saline
  T/C: 226 % of control
dose: 25.0 mg/kg/injection, schedule: Q01DX009 (ip), vehicle: saline
  T/C: 156 % of control
dose: 50.0 mg/kg/injection, schedule: Q01DX009 (ip), vehicle: saline
  T/C: 122 % of control

## S=P(S)(c1ccccc1)c1ccccc1
dose: 80.5 mg/kg/injection, schedule: Q01DX009 (ip), vehicle: saline
  T/C: 90 % of control
dose: 106.26 mg/kg/injection, schedule: Q01DX009 (ip), vehicle: saline
  T/C: 116 % of control
dose: 241.5 mg/kg/injection, schedule: Q01DX009 (ip), vehicle: saline
  T/C: 95 % of control
